Read-outs that look alike come from different tables or passages of the source.
Key:
[1] = in vitro; parameters: species or system HepG2; conditions: human, hff cells, read-out: HFF cells 80 uM
Procedure: (§1) The table summarizes the activity of each of the compounds in assays measuring recombinant TgMyoA ATPase activity, parasite growth and mammalian cell toxicity; the data on which the table is based are shown in Suppl. Figures 3-5. ATPase assay data correspond to relative luminescence units × 10^−6 (mean from 3 independent replicates +/-SEM) in the presence of 20 μM compound (Suppl. Figure 3). […] Growth assay data correspond to calculated IC50 and 95% confidence interval from a 5-6 day growth assay (Suppl. Figure 4). […] Toxicity assay entries summarize the results from 72-hour CellTox™ Green toxicity and CellTiter-Glo® viability assays on both human foreskin fibroblasts and HepG2 cells. Thresholds for mild and moderate toxicity and loss of viability compared to vehicle (DMSO) controls are indicated by the colored bars on the right hand side of Suppl. […] Fluorescence was measured daily to quantify parasite growth, in the continued presence of compound, over the next 7 days. RFU = relative fluorescence units. The data shown are the mean ± SEM from two independent biological replicates, each consisting of 3 technical replicates at all time points. […] See Figure 5A for a repeat of these growth assays and IC50 calculations. […] Cell viability/growth was measured using Promega CellTiter-Glo® (top panel) and toxicity was measured using Promega CellTox™ green (bottom panel). 0.1% w/v NaN3 served as a positive control for cytotoxicity / growth inhibition. Results are plotted relative to the DMSO controls. Bars show the mean of three independent experiments ± SEM.

[2] = target: T1, rabbit fast skeletal muscle myosin; assay: myofibril ATPase assay; assay type: biochemical, Oryctolagus cuniculus; conditions: 75% calcium activation (pCa75); up to 40 μM tested
T1 construct: gene MYH4; native rabbit fast skeletal myofibrils, full length, with native light chains and thin filaments
Excerpt: myofibril ATPase assay on rabbit fast skeletal muscle myosin

[3] = in vitro; parameters: species or system HFF; conditions: human, hepg2 cells, read-out: HepG2 cells 80 uM
Procedure: as §1

[4] = system: T2, Toxoplasma gondii RH (tdTomato); assay: microbe, parasite or virus in culture; parameters: species or system HFF (host); tdTomato parasite growth in HFF cells, daily fluorescence, IC50 at day 5-6; conditions: HFF
T2 construct: RH
Procedure: 557 558 Parasite growth assays. Fluorescence-based growth assay. To quantify growth in the presence of compound(s), 1x10^4 559 tachyzoites were preincubated with compound for 5 minutes prior to inoculation onto 560 3 wells of a black sided, clear bottom 384-well plate containing a confluent monolayer of HFF cells. For 561 compound assays, parasites expressing tdTomato were incubated with vehicle or serial dilutions of 562 compound, maintaining a constant DMSO concentration (0.2% v/v). The fluorescent signal was 563 quantified daily for 7 days (ex 530/25, em 590/35) on a Biotek synergy 2 plate reader. The IC50 of growth 564 inhibitory compounds was quantified using GraphPad Prism. Plaque assay. 10, 100, 200, or 500 565 parasites were used to inoculate a confluent monolayer of HFF cells in a 12-well plate and incubated for 566 7 days at 37 °C, 5% CO2. Infected monolayers were then washed with phosphate-buffered saline, fixed 567 with 100% EtOH for five minutes, stained with 5X crystal violet solution (12.5 g crystal violet, 125 ml 568 100% EtOH, 500 ml 1% w/v ammonium oxalate) for 5 minutes, washed with PBS, and allowed to dry.  Figure 3: Preliminary structure-activity relationship (SAR) analysis. […] The table summarizes the activity of each of the compounds in assays measuring recombinant TgMyoA ATPase activity, parasite growth and mammalian cell toxicity; the data on which the table is based are shown in Suppl. Figures 3-5. ATPase assay data correspond to relative luminescence units × 10^−6 (mean from 3 independent replicates +/-SEM) in the presence of 20 μM compound (Suppl. Figure 3). […] Growth assay data correspond to calculated IC50 and 95% confidence interval from a 5-6 day growth assay (Suppl. Figure 4). […] Toxicity assay entries summarize the results from 72-hour CellTox™ Green toxicity and CellTiter-Glo® viability assays on both human foreskin fibroblasts and HepG2 cells. Thresholds for mild and moderate toxicity and loss of viability compared to vehicle (DMSO) controls are indicated by the colored bars on the right hand side of Suppl. […] Fluorescence was measured daily to quantify parasite growth, in the continued presence of compound, over the next 7 days. RFU = relative fluorescence units. The data shown are the mean ± SEM from two independent biological replicates, each consisting of 3 technical replicates at all time points. […] See Figure 5A for a repeat of these growth assays and IC50 calculations. […] Cell viability/growth was measured using Promega CellTiter-Glo® (top panel) and toxicity was measured using Promega CellTox™ green (bottom panel). 0.1% w/v NaN3 served as a positive control for cytotoxicity / growth inhibition. Results are plotted relative to the DMSO controls. Bars show the mean of three independent experiments ± SEM.

SMILES: COc1ccc(C2(NCc3c[nH]nc3-c3cccs3)CC2)cc1 [KNX-002, 1-(4-methoxyphenyl)-N-((3-(thiophen-2-yl)-1H-pyrazol-4-yl)methyl)cyclopropan-1-amine]
- CC50 at 72 h [1]: > 80 µM
- IC50 [2]: > 39.2 µM
- CC50 at 72 h [3]: > 80 µM
- IC50 ([4]; read-out: IC50 (D5)): 14.9 µM
- IC50 ([4]; read-out: Parasite Growth IC50): 19.7 µM

SMILES: c1csc(-c2n[nH]cc2CNC2CC2)c1 [VEST1, N-((3-(thiophen-2-yl)-1H-pyrazol-4-yl)methyl)cyclopropanamine]
- CC50 at 72 h [1]: > 80 µM
- CC50 at 72 h [3]: > 80 µM
- IC50 ([4]; read-out: Parasite Growth IC50): > 80 µM

SMILES: Clc1ccc(C2(NCc3c[nH]nc3-c3cccs3)CC2)cc1 [VEST2, 1-(4-chlorophenyl)-N-((3-(thiophen-2-yl)-1H-pyrazol-4-yl)methyl)cyclopropan-1-amine]
- IC50 ([4]; read-out: Parasite Growth IC50): 15.5 µM

SMILES: Cc1ccc(C2(NCc3c[nH]nc3-c3cccs3)CC2)cc1 [VEST3, N-((3-(thiophen-2-yl)-1H-pyrazol-4-yl)methyl)-1-(p-tolyl)cyclopropan-1-amine]
- IC50 ([4]; read-out: Parasite Growth IC50): 25.4 µM

SMILES: Clc1ccc(C2(NCc3c[nH]nc3-c3cccs3)CC2)cc1Cl [VEST4, 1-(3,4-dichlorophenyl)-N-((3-(thiophen-2-yl)-1H-pyrazol-4-yl)methyl)cyclopropan-1-amine]
- CC50 at 72 h [1]: > 80 µM
- CC50 at 72 h [3]: > 80 µM
- IC50 ([4]; read-out: Parasite Growth IC50): 31 µM

SMILES: c1ccc(C2(NCc3c[nH]nc3-c3cccs3)CC2)cc1 [VEST5, 1-phenyl-N-((3-(thiophen-2-yl)-1H-pyrazol-4-yl)methyl)cyclopropan-1-amine]
- CC50 at 72 h [1]: > 80 µM
- CC50 at 72 h [3]: > 80 µM
- IC50 ([4]; read-out: Parasite Growth IC50): 9.9 µM

SMILES: COc1ccc(C2(NCc3c[nH]nc3-c3ccccc3)CC2)cc1 [VEST6, 1-(4-methoxyphenyl)-N-((3-phenyl-1H-pyrazol-4-yl)methyl)cyclopropan-1-amine]
- CC50 at 72 h [1]: > 80 µM
- CC50 at 72 h [3]: > 80 µM
- IC50 ([4]; read-out: Parasite Growth IC50): 24.9 µM

SMILES: COc1ccc(C2(NCc3ccccc3)CC2)cc1 [VEST7, N-benzyl-1-(4-methoxyphenyl)cyclopropan-1-amine]
- CC50 at 72 h [1]: > 80 µM
- CC50 at 72 h [3]: > 80 µM
- IC50 ([4]; read-out: Parasite Growth IC50): > 80 µM

SMILES: COc1ccc(C2(NCc3cncs3)CC2)cc1 [VEST8, 1-(4-methoxyphenyl)-N-(thiazol-5-ylmethyl)cyclopropan-1-amine]
- CC50 at 72 h [1]: > 80 µM
- CC50 at 72 h [3]: > 80 µM
- IC50 ([4]; read-out: Parasite Growth IC50): > 80 µM

SMILES: COc1ccc(C2(NCc3ccoc3)CC2)cc1 [VEST9, N-(furan-3-ylmethyl)-1-(4-methoxyphenyl)cyclopropan-1-amine]
- CC50 at 72 h [1]: > 80 µM
- CC50 at 72 h [3]: > 80 µM
- IC50 ([4]; read-out: Parasite Growth IC50): > 80 µM

SMILES: COc1ccc(C2(NCc3cc[nH]c3)CC2)cc1 [VEST10, N-((1H-pyrrol-3-yl)methyl)-1-(4-methoxyphenyl)cyclopropan-1-amine]
- CC50 at 72 h [1]: > 80 µM
- CC50 at 72 h [3]: > 80 µM
- IC50 ([4]; read-out: Parasite Growth IC50): 21.7 µM

SMILES: COc1ccc(CNCc2c[nH]nc2-c2cccs2)cc1 [VEST11, N-(4-methoxybenzyl)-1-(3-(thiophen-2-yl)-1H-pyrazol-4-yl)methanamine]
- CC50 at 72 h [1]: > 80 µM
- CC50 at 72 h [3]: > 80 µM
- IC50 ([4]; read-out: Parasite Growth IC50): > 80 µM

SMILES: c1ccc(CNCc2c[nH]nc2-c2cccs2)cc1 [VEST12, N-benzyl-1-(3-(thiophen-2-yl)-1H-pyrazol-4-yl)methanamine]
- CC50 at 72 h [3]: > 80 µM
- IC50 ([4]; read-out: Parasite Growth IC50): > 80 µM

SMILES: CC(C)(NCc1c[nH]nc1-c1cccs1)c1ccccc1 [VEST13, 2-phenyl-N-((3-(thiophen-2-yl)-1H-pyrazol-4-yl)methyl)propan-2-amine]
- CC50 at 72 h [3]: > 80 µM
- IC50 ([4]; read-out: Parasite Growth IC50): 27.1 µM

SMILES: COc1ccc([C@@H](C)NCc2c[nH]nc2-c2cccs2)cc1 [VEST14, (R)-1-(4-methoxyphenyl)-N-((3-(thiophen-2-yl)-1H-pyrazol-4-yl)methyl)ethan-1-amine]
- CC50 at 72 h [3]: > 80 µM
- IC50 ([4]; read-out: Parasite Growth IC50): 44.3 µM

SMILES: COc1ccc([C@H](C)NCc2c[nH]nc2-c2cccs2)cc1 [VEST15, (S)-1-(4-methoxyphenyl)-N-((3-(thiophen-2-yl)-1H-pyrazol-4-yl)methyl)ethan-1-amine]
- CC50 at 72 h [3]: > 80 µM
- IC50 ([4]; read-out: Parasite Growth IC50): 39.7 µM

From publication doi:10.1101/2022.09.09.507210v3, “The class XIV myosin of Toxoplasma gondii, TgMyoA, is druggable in an animal model of infection” (biorxiv, 2023)
